Data from ChEMBL document CHEMBL6078725, “Discovery of novel xanthohumol C derivatives regulating XRCC2 transcription and expression for the treatment of colorectal cancer” (Bioorg Med Chem, 2025).
Active and inactive are the calls of the source. No cut-off for these calls is given here.

How the values were obtained:
HCT-116 [1] = experiment: Antiproliferative activity against human HCT-116 cells incubated for 48 hrs by MTS assay; type: functional, cell-based; details: HCT-116, 48 h
RKO = experiment: Antiproliferative activity against human RKO cells incubated for 48 hrs by MTS assay; type: functional, cell-based
HCT-116 [2] = experiment: Antitumor activity against human HCT-116 cells xenografted in BALB/c mouse assessed as inhibition of tumor growth at 20 mg/kg, ip administered for 2 weeks; type: functional, organism-based

COc1cc2c(c(OC)c1C(=O)/C=C/c1ccc(Cl)cc1)C=CC(C)(C)O2
IC50 (HCT-116 [1]): > 12.7 µM | IC50 (RKO): 9.04 µM

COc1cc2c(c(O)c1C(=O)/C=C/c1ccccc1)C=CC(C)(C)O2
IC50 (HCT-116 [1]): 24.9 µM | IC50 (RKO): 23.6 µM

COc1cc2c(c(O)c1C(=O)/C=C/c1cccc(OCc3ccccc3)c1)C=CC(C)(C)O2
IC50 (HCT-116 [1]): 189 µM | IC50 (RKO): 149 µM

COc1cc(/C=C/C(=O)c2c(OC)cc3c(c2O)C=CC(C)(C)O3)cc(OC)c1O
IC50 (HCT-116 [1]): 39.4 µM | IC50 (RKO): 25.6 µM

COc1cc2c(c(O)c1C(=O)/C=C/c1ccc(Cl)cc1)C=CC(C)(C)O2
IC50 (HCT-116 [1]): 26.1 µM | IC50 (RKO): 26.2 µM

O=c1[nH]cc(F)c(=O)[nH]1
Activity (HCT-116 [2]): Active

COc1cc2c(c(O)c1C(=O)/C=C/c1ccc3[nH]ccc3c1)C=CC(C)(C)O2
IC50 (HCT-116 [1]): > 22.4 µM | IC50 (RKO): 19.2 µM

COc1cc2c(c(O)c1C(=O)/C=C/c1ccccc1O)C=CC(C)(C)O2
IC50 (HCT-116 [1]): 12.9 µM | IC50 (RKO): 10.9 µM

COc1cc2c(c(O)c1C(=O)/C=C/c1cn(C)c3ccccc13)C=CC(C)(C)O2
IC50 (HCT-116 [1]): > 200 µM | IC50 (RKO): > 200 µM

COc1cc2c(c(O)c1C(=O)/C=C/c1ccc(N3CCN(C)CC3)cc1)C=CC(C)(C)O2
IC50 (HCT-116 [1]): 12.5 µM | IC50 (RKO): 13.5 µM

COc1cc2c(c(O)c1C(=O)/C=C/c1ccc(O)cc1)C=CC(C)(C)O2 [XANTHOHUMOL C]
IC50 (HCT-116 [1]): 25.9 µM | IC50 (RKO): 28.5 µM

COc1ccc(/C=C/C(=O)c2c(OC)cc3c(c2O)C=CC(C)(C)O3)cc1O
IC50 (HCT-116 [1]): 25 µM | IC50 (RKO): 18.3 µM

CCN(CC)c1ccc(/C=C/C(=O)c2c(OC)cc3c(c2O)C=CC(C)(C)O3)cc1
IC50 (HCT-116 [1]): > 200 µM | IC50 (RKO): > 200 µM

COc1cc2c(c(O)c1C(=O)/C=C/c1ccc(C(F)(F)F)cc1)C=CC(C)(C)O2
IC50 (HCT-116 [1]): 26.2 µM | IC50 (RKO): 25.4 µM

COc1cccc(/C=C/C(=O)c2c(OC)cc3c(c2O)C=CC(C)(C)O3)c1OC
IC50 (HCT-116 [1]): 23.1 µM | IC50 (RKO): 13.9 µM

COc1cc2c(c(OC)c1C(=O)/C=C/c1ccccc1)C=CC(C)(C)O2
IC50 (HCT-116 [1]): 22.7 µM | IC50 (RKO): 20.4 µM

COc1cc2c(c(O)c1C(=O)/C=C/c1ccccc1Br)C=CC(C)(C)O2
IC50 (HCT-116 [1]): 20.5 µM | IC50 (RKO): 23.1 µM

COc1cc2c(c(O)c1C(=O)/C=C/c1ccc(C(C)C)cc1)C=CC(C)(C)O2
IC50 (HCT-116 [1]): 79.1 µM | IC50 (RKO): 69.5 µM
